Laboratory results published in US20050014768A1, “Use of 4-oxobutanoic acid derivatives in the treatment of inflammation” (priority 2001, published 2005).

System: carrageenan-induced inflammatory oedema of the rat paw
Assay: Test of carrageenan-induced inflammatory oedema (rat paw, plethysmometry)
Format: in vivo, Rat of Wistar type
Details: for V oedema: difference in paw volume before and three hours after carrageenan, one hour before carrageenan; for Reduction in oedema: versus controls, three hours after carrageenan
Method: The compounds of the formula (I) were subjected to biological tests designed to reveal their anti-inflammatory activity. The in vivo activity of the compounds of the formula (I) was studied in an experimental model of inflammation in rats. Inflammatory oedema of the rat paw is induced by intradermal injection of carrageenan (1% V/V) into the hind paw of the rat. This oedema is measured by plethysmometry according to the method of Winter C. A. et al. (Proc. Soc. Exp. Biol. Med.; (1962); 111; 544-547). The substances with an anti-inflammatory effect bring about a reduction in the oedema thus created. Indomethacin is used as anti-inflammatory reference in the test.
Animal model: Rat of Wistar type
Anti-inflammatory reference: indomethacin from the company Sigma
Control: 0.5% methylcellulose hydrogel.
After fasting for one day, the volume of the right hind paw is measured [V paw]. The test compounds, the reference and the control are administered orally in a volume of 10 ml/kg. One hour after administration, oedema is induced by an intraplantar injection of 50 microlitres of carrageenan (1%, VN) hydrogel into the right hind paw. The volume of this paw is measured three hours after inducing the oedema. The intensity of the oedema [V oedema] is evaluated by the difference in the volume of the paw, before and three hours after the injection of carrageenan.

| SMILES | V oedema (oral 30 mg) [mL] | V oedema (oral 100 mg) [mL] | V oedema (oral 300 mg) [mL] | Reduction in oedema (oral 30 mg) [%] | Reduction in oedema (oral 100 mg) [%] | Reduction in oedema (oral 300 mg) [%] | V oedema (oral, dose not given) [mL] | Reduction in oedema (oral, dose not given) [%] |
| --- | --- | --- | --- | --- | --- | --- | --- | --- |
| O=C(CC(Cc1ccccc1)C(=O)O)c1ccc(F)cc1 (single isomer, unassigned; (-)) [P, (−)-2-benzyl-4-(4-fluorophenyl)-4-oxobutanoic acid] | 0.42 | 0.11 | 0.17 | −32 | −83 | −73 | – | – |
| COc1ccc2c(c1)c(CC(=O)O)c(C)n2C(=O)c1ccc(Cl)cc1 [Indomethacin, indomethacin, reference compound] | – | – | – | – | – | – | 0.20 | −67 |
